biological target: T1, human neutrophil elastase (HNE) (Homo sapiens, UniProt P08246); experiment: HNE Enzyme Assay (fluorogenic peptide substrate MeOSuc-Ala-Ala-Pro-Val-AMC); type: biochemical; details: human leukocyte elastase 0.00072 U/mL, substrate 100 μM, 25° C., 30 minutes, at least two separate experiments; read-out: HNE inhibition (IC50 values)
T1 construct: purchased Sigma E8140
T1 sequence (P08246 30-247 limits assumed): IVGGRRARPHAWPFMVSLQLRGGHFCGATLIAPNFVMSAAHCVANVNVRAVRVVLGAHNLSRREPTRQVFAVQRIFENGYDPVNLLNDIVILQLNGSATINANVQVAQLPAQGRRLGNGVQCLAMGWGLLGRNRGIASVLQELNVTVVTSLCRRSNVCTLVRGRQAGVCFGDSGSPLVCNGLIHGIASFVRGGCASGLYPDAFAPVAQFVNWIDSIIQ
Protocol: Compounds of this invention were tested for potency in a human neutrophil elastase (HNE) enzyme activity assay.
Assays were performed in 96-well plates in a total assay volume of 100 μL. The final concentration of elastase enzyme (human leukocyte elastase, Sigma E8140) was 0.00072 U/mL. The peptide substrate (MeOSuc-Ala-Ala-Pro-Val-AMC, Calbiochem #324740) was used at a final concentration of 100 μM. The final concentration of DMSO was 1% in the assay buffer (0.05M Tris.HCl, 0.1M NaCl, 0.1M CaCl2, 0.0005% Brij-35, pH 7.5). The enzymatic reaction was started by addition of the enzyme and incubated at 25° C. for 30 minutes. After incubation, the reaction was stopped by addition of soybean trypsin inhibitor (Sigma T9003) at a final concentration of 50 μg/well. Fluorescence was measured using a Molecular Devices fluorescence plate reader using 380 nm excitation and 460 nm emission wavelengths.
A concentration response to each compound was performed and the effect of compound in each experiment was expressed as a percentage inhibition of the control enzyme fluorescence. Dose response curves were plotted and compound potency (IC50) was determined. Compounds were tested in at least two separate experiments.

SMILES | IC50
Cc1c(-c2ccnn2-c2ccc(C#N)cc2)n(C(=O)NC2CC3(CC[N+](C)(C)CC3)C2)c(=O)n1-c1cccc(C(F)(F)F)c1 [Example 51, 2-{[5-[2-(4-Cyano-phenyl)-2H-pyrazol-3-yl]-4-methyl-2-oxo-3-(3-trifluoromethyl-phenyl)-2,3-dihydro-imidazole-1-carbonyl]-amino}-7,7-dimethyl-7-azonia-spiro[3.5]nonane benzene sulfonate] | < 1 nM
Cc1c(-c2ccnn2-c2ccc(C#N)cc2)n(C(=O)N[C@@H](C)C(=O)N2CC[N+](C)(C)CC2)c(=O)n1-c1cccc(C(F)(F)F)c1 [Example 50, 4-((S)-2-{[5-[2-(4-Cyano-phenyl)-2H-pyrazol-3-yl]-4-methyl-2-oxo-3-(3-trifluoromethyl-phenyl)-2,3-dihydro-imidazole-1-carbonyl]-amino}-propionyl)-1,1-dimethyl-piperazin-1-ium benzene sulfonate] | < 1 nM
Cc1c(-c2ccnn2-c2ccc(C#N)cc2)n(C(=O)N[C@H]2C[C@@H]3C[N+](C)(C)C[C@@H]3C2)c(=O)n1-c1cccc(C(F)(F)F)c1 [Example 56, (3aR,5S,6aS)-5-{[5-[2-(4-Cyano-phenyl)-2H-pyrazol-3-yl]-4-methyl-2-oxo-3-(3-trifluoromethyl-phenyl)-2,3-dihydro-imidazole-1-carbonyl]-amino}-2,2-dimethyl-octahydro-cyclopenta[c]pyrrolium benzene sulfonate] | < 1 nM
Cc1c(-c2ccnn2-c2ccc(C#N)cc2)n(C(=O)N[C@@H](C)C(=O)NC2CCN(C)CC2)c(=O)n1-c1cccc(C(F)(F)F)c1 [Example 13, 5-[2-(4-Cyano-phenyl)-2H-pyrazol-3-yl]-4-methyl-2-oxo-3-(3-trifluoromethyl-phenyl)-2,3-dihydro-imidazole-1-carboxylic acid [(S)-1-(1-methyl-piperidin-4-ylcarbamoyl)-ethyl]-amide] | < 1 nM
Cc1c(-c2ccnn2-c2ccc(C#N)cc2)n(C(=O)N[C@@H](C)c2ncc(CN(C)C)o2)c(=O)n1-c1cccc(C(F)(F)F)c1 [Example 16, 5-[2-(4-Cyano-phenyl)-2H-pyrazol-3-yl]-4-methyl-2-oxo-3-(3-trifluoromethyl-phenyl)-2,3-dihydro-imidazole-1-carboxylic acid [(S)-1-(5-dimethylaminomethyl-oxazol-2-yl)-ethyl]-amide] | < 1 nM
CC[N+]1(CC)CCC(NC(=O)n2c(-c3ccnn3-c3ccc(C#N)cc3)c(C)n(-c3cccc(C(F)(F)F)c3)c2=O)CC1 [Example 40, 4-{[5-[2-(4-Cyano-phenyl)-2H-pyrazol-3-yl]-4-methyl-2-oxo-3-(3-trifluoromethyl-phenyl)-2,3-dihydro-imidazole-1-carbonyl]-amino}-1,1-diethyl-piperidinium benzene sulfonate] | < 1 nM
Cc1c(-c2ccnn2-c2ccc(C#N)cc2)n(C(=O)N[C@H]2CC[C@H](CN(C)C)CC2)c(=O)n1-c1cccc(C(F)(F)F)c1 [Example 1, 5-[2-(4-Cyano-phenyl)-2H-pyrazol-3-yl]-4-methyl-2-oxo-3-(3-trifluoromethyl-phenyl)-2,3-dihydro-imidazole-1-carboxylic acid trans-(4-dimethylaminomethyl-cyclohexyl)-amide] | < 1 nM
Cc1c(-c2ccnn2-c2ccc(C#N)cc2)n(C(=O)N[C@@H](C)c2cc[n+](C)cc2)c(=O)n1-c1cccc(C(F)(F)F)c1 [Example 38, 4-((S)-1-{[5-[2-(4-Cyano-phenyl)-2H-pyrazol-3-yl]-4-methyl-2-oxo-3-(3-trifluoromethyl-phenyl)-2,3-dihydro-imidazole-1-carbonyl]-amino}-ethyl)-1-methyl-pyridinium benzene sulfonate] | < 1 nM
Cc1c(-c2ccnn2-c2ccc(C#N)cc2)n(C(=O)N[C@H](c2ncc(CN(C)C)o2)C(C)C)c(=O)n1-c1cccc(C(F)(F)F)c1 [Example 21, 5-[2-(4-Cyano-phenyl)-2H-pyrazol-3-yl]-4-methyl-2-oxo-3-(3-trifluoromethyl-phenyl)-2,3-dihydro-imidazole-1-carboxylic acid [(S)-1-(5-dimethylaminomethyl-oxazol-2-yl)-2-methyl-propyl]-amide] | < 1 nM

Results, then the compound that gave them:

IC50 | SMILES
< 1 nM | Cc1c(-c2ccnn2-c2ccc(C#N)cc2)n(C(=O)NC2CCN(C(=O)OCC[N+](C)(C)C)CC2)c(=O)n1-c1cccc(C(F)(F)F)c1 [Example 93, [2-(4-{[5-[2-(4-Cyano-phenyl)-2H-pyrazol-3-yl]-4-methyl-2-oxo-3-(3-trifluoromethyl-phenyl)-2,3-dihydro-imidazole-1-carbonyl]-amino}-piperidine-1-carbonyloxy)-ethyl]-trimethyl-ammonium benzene sulfonate]
< 1 nM | Cc1c(-c2ccnn2-c2ccc(C#N)cc2)n(C(=O)N[C@H](c2ncc(C[N+](C)(C)C)o2)C(C)C)c(=O)n1-c1cccc(C(F)(F)F)c1 [Example 73, [2-((S)-1-{[5-[2-(4-Cyano-phenyl)-2H-pyrazol-3-yl]-4-methyl-2-oxo-3-(3-trifluoromethyl-phenyl)-2,3-dihydro-imidazole-1-carbonyl]-amino}-2-methyl-propyl)-oxazol-5-ylmethyl]-trimethyl-ammonium benzene sulfonate]
< 1 nM | Cc1c(-c2ccnn2-c2ccc(C#N)cc2)n(C(=O)N[C@@H](C)c2nnc(C[N+](C)(C)C)o2)c(=O)n1-c1cccc(C(F)(F)F)c1 [Example 63, [5-((S)-1-{[5-[2-(4-Cyano-phenyl)-2H-pyrazol-3-yl]-4-methyl-2-oxo-3-(3-trifluoromethyl-phenyl)-2,3-dihydro-imidazole-1-carbonyl]-amino}-ethyl)-[1,3,4]oxadiazol-2-ylmethyl]-trimethyl-ammonium benzene sulfonate]
< 1 nM | Cc1c(-c2ccnn2-c2ccc(C#N)cc2)n(C(=O)NC2CCN(C(=O)CC[N+](C)(C)C)CC2)c(=O)n1-c1cccc(C(F)(F)F)c1 [Example 65, [3-(4-{[5-[2-(4-Cyano-phenyl)-2H-pyrazol-3-yl]-4-methyl-2-oxo-3-(3-trifluoromethyl-phenyl)-2,3-dihydro-imidazole-1-carbonyl]-amino}-piperidin-1-yl)-3-oxo-propyl]-trimethyl-ammonium benzene sulfonate]
1 to 10 nM | Cc1c(-c2ccnn2-c2ccc(C#N)cc2)n(C(=O)N[C@H]2CC[C@@H](C(=O)NCC[N+](C)(C)C)CC2)c(=O)n1-c1cccc(C(F)(F)F)c1 [Example 80, {2-[(Cis-4-{[5-[2-(4-cyano-phenyl)-2H-pyrazol-3-yl]-4-methyl-2-oxo-3-(3-trifluoromethyl-phenyl)-2,3-dihydro-imidazole-1-carbonyl]-amino}-cyclohexanecarbonyl)-amino]-ethyl}-trimethyl-ammonium benzene sulfonate]
< 1 nM | Cc1c(-c2ccnn2-c2ccc(C#N)cc2)n(C(=O)N[C@@H](C)C(=O)N(C)C2CC[N+](C)(C)CC2)c(=O)n1-c1cccc(C(F)(F)F)c1 [Example 91, 4-[((S)-2-{[5-[2-(4-Cyano-phenyl)-2H-pyrazol-3-yl]-4-methyl-2-oxo-3-(3-trifluoromethyl-phenyl)-2,3-dihydro-imidazole-1-carbonyl]-amino}-propionyl)-methyl-amino]-1,1-dimethyl-piperidinium benzene sulfonate]
< 1 nM | Cc1c(-c2ccnn2-c2ccc(C#N)cc2)n(C(=O)NC2CCN(C(=O)C[N+](C)(C)C)CC2)c(=O)n1-c1cccc(C(F)(F)F)c1 [Example 61, [2-(4-{[5-[2-(4-Cyano-phenyl)-2H-pyrazol-3-yl]-4-methyl-2-oxo-3-(3-trifluoromethyl-phenyl)-2,3-dihydro-imidazole-1-carbonyl]-amino}-piperidin-1-yl)-2-oxo-ethyl]-trimethyl-ammonium benzene sulfonate]
< 1 nM | Cc1c(-c2ccnn2-c2ccc(C#N)cc2)n(C(=O)N[C@H]2C[C@H](C(=O)NCC[N+](C)(C)C)C2)c(=O)n1-c1cccc(C(F)(F)F)c1 [Example 83, {2-[(Trans-3-{[5-[2-(4-cyano-phenyl)-2H-pyrazol-3-yl]-4-methyl-2-oxo-3-(3-trifluoromethyl-phenyl)-2,3-dihydro-imidazole-1-carbonyl]-amino}-cyclobutanecarbonyl)-amino]-ethyl}-trimethyl-ammonium benzene sulfonate]
< 1 nM | Cc1c(-c2ccnn2-c2ccc(C#N)cc2)n(C(=O)N[C@@H](C)C(=O)N(C)CC2CC[N+](C)(C)CC2)c(=O)n1-c1cccc(C(F)(F)F)c1 [Example 62, 4-{[((S)-2-{[5-[2-(4-Cyano-phenyl)-2H-pyrazol-3-yl]-4-methyl-2-oxo-3-(3-trifluoromethyl-phenyl)-2,3-dihydro-imidazole-1-carbonyl]-amino}-propionyl)-methyl-amino]-methyl}-1,1-dimethyl-piperidinium benzene sulfonate]

Reference: patent publication US10023558B2, “Compounds” (CHIESI FARMACEUTICI S.P.A., priority 2016, dated 2018)
